Experiments:
[1] = tested on: LNCaP-DTP cells; assay: CCK8 cell survival, LNCaP-DTP cells; assay type: cell-based, human
Procedure: (§1) Further, drug-resistant LNCaP-DTP and MyC-CaP-DTP cells as well as 22Rv1 cells which are themselves ENZ-resistant were transfected with the modified #3-siPRDX5-1-16 or #3-siGPX4-1-16 or #3-siPRDX5-1-16+#3-siGPX4-1-16 synthesized in Example 3 through a CCK8 method, illustrating the in vitro antitumor effects of nucleic acid drugs in drug-resistant cells.
(§2) The drug-resistant LNCaP-DTP and MyC-CaP-DTP cells as well as 22Rv1 cells which are themselves ENZ-resistant were seeded in a 96-well plate containing fresh 1640 medium and attached. Subsequently, 1 to 16 siPRDX5, siGPX4, siPRDX5+siGPX4, and negative control si-neg were added, and the transfection mixture was sucked out after successful interference. The medium was replaced with a normal complete medium (1640 medium containing 10% fetal bovine serum and 1% double antibody) and continued to be cultured in the incubator for 24 h. Finally, a CCK8 assay was performed for determination and the cell survival was calculated by OD450 value.

[2] = tested on: MyC-CaP-DTP cells; assay: CCK8 cell survival, MyC-CaP-DTP cells; assay type: cell-based, mouse
Procedure: as §1, §2

[3] = tested on: PRDX5 enzyme activity; assay: PRDX5 enzyme activity in prostate tissue of CRPC mice (thioredoxin system); assay type: in vivo, mouse; conditions: administration for 30 days, ENZ 10 mg/Kg gavage, siRNA 100 nM tail vein injection
Procedure: (§3) A C-MYC (Hi-Myc)-overexpressing and spontaneous prostate cancer mouse model was constructed. mPIN/Cancer transition was developed in mice at the age of 4 months, at which time the mice were randomly grouped into NC control group (gavaged with solvent) and ENZ administration group. The ENZ administration group was given 10 mg/Kg ENZ by gavage every three days for a total of 30 days, and then some of the mice were sacrificed by cervical dislocation and their prostates were taken for photographing and weighing. […] Afterwards, the rest of the mice continued to be administrated according to the above method for 60 days. A recurrence was found in the ENZ group, and the CRPC mice were successfully obtained. […]
Assay for PRDX5 enzyme activity: the PRDX5 enzyme activity was determined using the thioredoxin system. Specifically, the rate of H2O2 degradation was measured by detecting the reduction of A340 caused by NADPH oxidation. […]

[4] = tested on: C-MYC (Hi-Myc)-overexpressing and spontaneous prostate cancer mouse model; assay: C-MYC (Hi-Myc)-overexpressing spontaneous prostate cancer mouse model, ENZ gavage before resistance; assay type: in vivo
Procedure: as §3, with “obtained. Afterwards, the mice (i.e., mice at the age of 7 months) were randomly grouped into NC control group (continuously gavaged with solvent), ENZ single drug group, nucleic acid drug siPRDX5-1 group, ENZ and siPRDX5-1 co-administration group, nucleic acid drug siPRDX5-16 group, ENZ and siPRDX5-16 co-administration group, nucleic acid drug siGPX4-1 group, ENZ and siGPX4-1 co-administration group, nucleic acid drug siGPX4-16 group, ENZ and siGPX4-16 co-administration group, nucleic acid drugs siPRDX5-16+siGPX4-16 group, and ENZ and siPRDX5-16+siGPX4-16 co-administration group. The corresponding administrations were performed.” for “obtained.”

[5] = tested on: CRPC mice; assay: Drug-resistant CRPC formed by continuous ENZ in C-MYC-overexpressing prostate cancer mice: prostate weight, HE staining; assay type: in vivo, mouse; conditions: CRPC mice after drug resistance and recurrence; every three days for 30 days; ENZ 10 mg/Kg gavage, siRNA 100 nM tail vein injection
Procedure: as §3, with “obtained. Afterwards, the mice (i.e., mice at the age of 7 months) were randomly grouped into NC control group (continuously gavaged with solvent), ENZ single drug group, nucleic acid drug siPRDX5-1 group, ENZ and siPRDX5-1 co-administration group, nucleic acid drug siPRDX5-16 group, ENZ and siPRDX5-16 co-administration group, nucleic acid drug siGPX4-1 group, ENZ and siGPX4-1 co-administration group, nucleic acid drug siGPX4-16 group, ENZ and siGPX4-16 co-administration group, nucleic acid drugs siPRDX5-16+siGPX4-16 group, and ENZ and siPRDX5-16+siGPX4-16 co-administration group. The corresponding administrations were performed.” for “obtained.”

[6] = tested on: GPX4 gene; assay: qRT-PCR relative expression of GPX4 gene after siGPX4 transfection, LNCaP and LNCaP-DTP cells; assay type: cell-based, human; conditions: for mRNA expression level of GPX4: LNCaP and drug-resistant LNCaP-DTP cells together; for Relative expression level of GPX4 gene: qRT-PCR; for interference activity on GPX4 gene expression (in words): drug-resistant or non-drug-resistant LNCaP cells and MyC-CaP cells
Procedure: (§4) To screen for suitable siRNAs, the interference activity of the siRNAs designed in Example 1 was determined. • S1. LNCaP and MyC-CaP cells were seeded at 1×10^6 in a 10 cm cell culture dish. On the second day, the cells were attached and then treated with 50 μM enzalutamide (ENZ) for 9 days, during which the medium was replaced with a fresh drug-containing medium (1640 medium containing 50 µM ENZ) for culture every three days. The cells were collected. After the treatment for 9 days, the cells were drug-resistant (DTP cells) and were labeled as LNCaP-DTP cells and MyC-CaP-DTP cells, respectively. • S2. LNCaP, MyC-CaP, and LNCaP-DTP and MyC-CaP-DTP cells as collected in S1, were seeded in a 6 cm dish and a 10 cm dish that contain fresh complete medium (1640 medium containing 10% fetal bovine serum and 1% […]), attached, and then transfected with siPRDX5 and siGPX4 designed in Example 1, and then mRNA and protein were extracted. • S3. RNA level and protein level were determined by qRT-PCR and Western Blot assays, and siRNAs with interference activity were screened and obtained.
(§5) The results are shown in FIG. 2 and FIG. 3 as well as Tables 1 and 2. Using the same method as in Example 2, LNCaP and MyC-CaP cells as well as their derived LNCaP-DTP and MyC-CaP-DTP cells were treated with the above modified siRNAs. […] It is also found to be more efficient in interfering with human cells compared to mice.

[7] = tested on: PRDX5 gene; assay: qRT-PCR relative expression of PRDX5 gene after siPRDX5 transfection, LNCaP and LNCaP-DTP cells; assay type: cell-based, human; conditions: for mRNA expression level of PRDX5: LNCaP and drug-resistant LNCaP-DTP cells together; for Relative expression level of PRDX5 gene: qRT-PCR
Procedure: as §4, §5

[8] = tested on: GPX4; assay: Western Blot / qRT-PCR expression of GPX4 after unmodified siGPX4; assay type: cell-based; conditions: unmodified siRNA; LNCaP and MyC-CaP cells (FIG. 1, FIG. 4)
Procedure: as §4

[9] = tested on: PRDX5; assay: Western Blot / qRT-PCR expression of PRDX5 after unmodified siPRDX5; assay type: cell-based; conditions: unmodified siRNA; LNCaP and MyC-CaP cells (FIG. 1, FIG. 4)
Procedure: as §4

Row | Compound | mRNA expression level of GPX4 [6] | Relative expression level of GPX4 gene ([6]; LNCaP cells) | Relative expression level of GPX4 gene ([6]; LNCaP-DTP cells) | mRNA expression level of PRDX5 [7] | Relative expression level of PRDX5 gene ([7]; LNCaP cells) | Relative expression level of PRDX5 gene ([7]; LNCaP-DTP cells) | further results
1 | CNC(=O)c1ccc(N2C(=S)N(c3ccc(C#N)c(C(F)(F)F)c3)C(=O)C2(C)C)cc1F [ENZ, Enzalutamide] | – | – | – | – | – | – | growth inhibition (in words) [1]: no longer has a significant inhibitory effect; growth inhibition (in words) [2]: no longer has a significant inhibitory effect; PRDX5 enzyme activity relative to NC group [3]: 4.56; recurrence on continued administration ([4]; administration continued for 60 further days): recurrence; prostate weight compared to that of the NC control group ([4]; mice aged 4 months, 10 mg/Kg ENZ by gavage every three days for 30 days): reduced by half; Mean mouse prostate weight [5]: 66.67 mg
2 | #1-siGPX4: unmodified double-stranded siRNA against GPX4, SEQ ID NO. 11 and SEQ ID NO. 12 (chain 1 GUGAGGCAAGACCGAAGUAAACUAC; chain 2 GUAGUUUACUUCGGUCUUGCCUCACUG; unmodified RNA) | around 0.73 | 0.700 | 0.735 | – | – | – | –
3 | #1-siPRDX5: unmodified double-stranded siRNA against PRDX5, SEQ ID NO. 7 and SEQ ID NO. 8 (chain 1 AGACAGACUUAUUACUAGAUGAUUC; chain 2 GAAUCAUCUAGUAAUAAGUCUGUCUCC; chain 1: all phosphodiester, sugars by position and methylation of C not given here; chain 2: unmodified RNA) | – | – | – | around 0.60 | 0.605 | 0.621 | –
4 | #2-siGPX4: unmodified double-stranded siRNA against GPX4, SEQ ID NO. 13 and SEQ ID NO. 14 (chain 1 CUACAACGUCAAAUUCGAUAUGUUC; chain 2 GAACAUAUCGAAUUUGACGUUGUAGCC; chain 1: all phosphodiester, sugars by position not given here; chain 2: RNA, phosphodiester; further chemistry not fully specified) | around 0.73 | 0.730 | 0.755 | – | – | – | –
5 | #2-siPRDX5: unmodified double-stranded siRNA against PRDX5, SEQ ID NO. 9 and SEQ ID NO. 10 (chain 1 GGCCAGAUUUCUGCAAUAAACACUU; chain 2 AAGUGUUUAUUGCAGAAAUCUGGCCAA; chain 1: all phosphodiester, sugars by position and methylation of C not given here; chain 2: unmodified RNA) | – | – | – | around 0.60 | 0.580 | 0.629 | –
6 | #3-siGPX4: unmodified double-stranded siRNA against GPX4, SEQ ID NO. 3 and SEQ ID NO. 4 (chain 1 ACAACGUCAAAUUCGAUAUGU; chain 2 ACAUAUCGAAUUUGACGUUGUAC; unmodified RNA) | around 0.21 | 0.180 | 0.245 | – | – | – | expression of GPX4, including mRNA level and protein level [8]: substantially reducing the expression of GPX4; interference activity on GPX4 gene expression (in words) [6]: superior interference activity than the #4-siGPX4
7 | #3-siPRDX5: unmodified double-stranded siRNA against PRDX5, SEQ ID NO. 1 and SEQ ID NO. 2 (chain 1 CAGACUUAUUACUAGAUGAUU; chain 2 AAUCAUCUAGUAAUAAGUCUGUC; unmodified RNA) | – | – | – | around 0.16 | 0.125 | 0.197 | expression of PRDX5, including mRNA level and protein level [9]: substantially reducing the expression of PRDX5; interference activity on PRDX5 gene expression (in words) ([7]; drug-resistant or non-drug-resistant LNCaP cells and MyC-CaP cells): superior
8 | #4-siGPX4: unmodified double-stranded siRNA against GPX4, SEQ ID NO. 5 and SEQ ID NO. 6 (chain 1 GUGAGGCAAGACCGAAGUAAA; chain 2 UUUACUUCGGUCUUGCCUCACUG; unmodified RNA) | around 0.24 | 0.220 | 0.265 | – | – | – | expression of GPX4, including mRNA level and protein level [8]: substantially reducing the expression of GPX4; interference activity on GPX4 gene expression (in words) [6]: superior
